Assay [1] deals with T1, Kras and SOS1 (biotin-tagged human Kras loaded with GDP, His-tagged human SOS1) (Homo sapiens, UniProt P01116, G12D).
T1 construct: made in house; host or cells: E. coli (stated for Kras only)
Nature of the assay: Protein-protein interaction inhibition between Kras and SOS1 (KrasGl2D-SOS PPI) using AlphaScreen. The assay is classed as binding. Particulars: AlphaScreen; biotin-tagged human Kras loaded with GDP, His-tagged human SOS1; read-out: KRAS G12D-SOS PPI IC50. In outline: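 Binding between SOS1 and Kras is detected as bead-proximity luminescence: illuminate Ni-conjugated donors (680 nm), collect 520-620 nm emission from streptavidin-conjugated acceptors; Kras carries biotin and GDP loaded after purification, SOS1 carries a His tag.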
On the technique in general: In Alpha technology, singlet oxygen from a donor bead excites a nearby acceptor bead.

The test system of assay [2] is Human pancreatic cancer cell line AsPC-1. Nature of the assay: Measurement of AsPC-1 cell growth inhibition (AsPC-1 CGI). The note with it: 96 h. The assay is classed as cell-based. In outline:
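AsPC-1 cells in 15% FBS RPMI-1640 were exposed to test compound for 96 hours at 37° C, with CellTiter-Glo as endpoint.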

Positions of bridges follow the written chain, without caps; N, C: chain ends. Non-standard residues stand in square brackets, D forms with d. Residues, ends and D or L forms follow the SMILES beside them. *: point of attachment. hPhe(3-Cl-4-CF3) = N[C@@H](CCc1ccc(C(F)(F)F)c(Cl)c1)C(=O)O; hPhe(3-F,4-CF3) = N[C@@H](CCc1ccc(C(F)(F)F)c(F)c1)C(=O)O; NMePhe(4-CF3) = CN[C@@H](Cc1ccc(C(F)(F)F)cc1)C(=O)O; NMePhe(4-Me) = CN[C@@H](Cc1ccc(C)cc1)C(=O)O; NMeGly(cPent) = CN[C@H](C(=O)O)C1CCCC1; NMeCha = CN[C@@H](CC1CCCCC1)C(=O)O; NMeChg = CN[C@H](C(=O)O)C1CCCCC1; Piperidide(4-Me) = CC1CCN(*)CC1; NMeD = CN[C@@H](CC(=O)O)C(=O)O; NMeL = CN[C@@H](CC(C)C)C(=O)O; d(β3hP) = O=C(O)C[C@H]1CCCN1; NMeV = CN[C@H](C(=O)O)C(C)C; d(β3hA) = C[C@@H](N)CC(=O)O; NMeA = CN[C@@H](C)C(=O)O; Piperidide = C1CCN(*)CC1; Ac5c = NC1(C(=O)O)CCCC1; Aze = O=C(O)[C@@H]1CCN1; Ac4c = NC1(C(=O)O)CCC1; Sar = CNCC(=O)O

T1 sequence (P01116 1-188 isoform P01116-2 G12D): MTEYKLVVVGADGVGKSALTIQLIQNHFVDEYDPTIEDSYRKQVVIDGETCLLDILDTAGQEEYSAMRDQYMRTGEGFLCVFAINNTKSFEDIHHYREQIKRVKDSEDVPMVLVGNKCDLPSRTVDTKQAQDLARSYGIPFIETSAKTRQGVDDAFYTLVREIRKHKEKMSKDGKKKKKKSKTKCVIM

Take `CC[C@H](C)[C@@H]1NC(=O)[C@H](CC(C)C)N(C)C(=O)C[C@H]2CCCN2C(=O)[C@H](C(C)C)N(C)C(=O)C2(CCCC2)NC(=O)[C@@H]2CCCN2C(=O)[C@H](CCc2ccc(C(F)(F)F)c(Cl)c2)NC(=O)CN(C)C(=O)[C@H](CC2CCCCC2)N(C)C(=O)[C@@H]2CCN2C(=O)[C@H](C)N(C)C1=O` [Compound 1332] (cyclo([Ac5c][NMeV][d(β3hP)][NMeL]I[NMeA][Aze][NMeCha][Sar][hPhe(3-Cl-4-CF3)]P)): the IC50 in assay [1] was 23 nM; in assay [2] it was 100 to 500 nM.
Regarding `CC[C@H](C)[C@@H]1NC(=O)[C@H](CC(C)C)N(C)C(=O)C[C@@H](C(=O)N2CCC(C)CC2)N(C)C(=O)[C@H](C2CCCCC2)N(C)C(=O)C2(CCCC2)NC(=O)[C@@H]2CCCN2C(=O)[C@H](CCc2ccc(C(F)(F)F)c(Cl)c2)NC(=O)CN(C)C(=O)[C@H](CC2CCCCC2)N(C)C(=O)CN(C)C(=O)CN(C)C1=O` [Compound 1347] ([NMeL]I[Sar][Sar][NMeCha][Sar][hPhe(3-Cl-4-CF3)]P[Ac5c][NMeChg][NMeD]-{Piperidide(4-Me)}; lactam N-11), the IC50 in assay [1] was 1.3 nM; in assay [2] it was 100 to 500 nM.
In the same order, the values of `CC[C@H](C)[C@@H]1NC(=O)[C@H](CC(C)C)N(C)C(=O)C[C@@H](C(=O)N2CCCCC2)N(C)C(=O)[C@H](C(C)C)N(C)C(=O)C2(CCCC2)NC(=O)[C@@H]2CCCN2C(=O)[C@H](CCc2ccc(C(F)(F)F)c(F)c2)NC(=O)CN(C)C(=O)[C@H](CC2CCCCC2)N(C)C(=O)CN(C)C(=O)CN(C)C1=O` [Compound 1454] ([NMeL]I[Sar][Sar][NMeCha][Sar][hPhe(3-F,4-CF3)]P[Ac5c][NMeV][NMeD]-Piperidide; lactam N-11) are 11 nM and 100 to 500 nM.
For `CC[C@H](C)[C@@H]1NC(=O)[C@H](CC(C)C)N(C)C(=O)C[C@@H](C)NC(=O)[C@H](C(C)C)N(C)C(=O)C2(CCCC2)NC(=O)[C@@H]2CCCN2C(=O)[C@H](CCc2ccc(C(F)(F)F)c(Cl)c2)NC(=O)CN(C)C(=O)[C@H](CC2CCCCC2)N(C)C(=O)CN(C)C(=O)CN(C)C1=O` [Compound 1457] (cyclo([Ac5c][NMeV][d(β3hA)][NMeL]I[Sar][Sar][NMeCha][Sar][hPhe(3-Cl-4-CF3)]P)), in that order: 11 nM and 100 to 500 nM.
In the same order, the values of `CC(C)C[C@H]1C(=O)N[C@@H](C(C)C)C(=O)N(C)CC(=O)N(C)CC(=O)N(C)[C@@H](CC2CCCCC2)C(=O)N(C)CC(=O)N[C@@H](CCc2ccc(C(F)(F)F)c(F)c2)C(=O)N2CCC[C@H]2C(=O)NC2(CCCC2)C(=O)N(C)[C@@H](CC(C)C)C(=O)N(C)[C@H](C(=O)N2CCCCC2)CC(=O)N1C` [Compound 1458] ([NMeL]V[Sar][Sar][NMeCha][Sar][hPhe(3-F,4-CF3)]P[Ac5c][NMeL][NMeD]-Piperidide; lactam N-11) are 7.2 nM and 100 to 500 nM.
Consider `CC[C@H](C)[C@@H]1NC(=O)[C@H](C)N(C)C(=O)C[C@@H](C)NC(=O)[C@H](C2CCCC2)N(C)C(=O)C2(CCCC2)NC(=O)[C@@H]2CCCN2C(=O)[C@H](CCc2ccc(C(F)(F)F)c(Cl)c2)NC(=O)CN(C)C(=O)[C@H](Cc2ccc(C)cc2)N(C)C(=O)[C@@H]2CCN2C(=O)CN(C)C1=O` [Compound 1462] (cyclo([Ac5c][NMeGly(cPent)][d(β3hA)][NMeA]I[Sar][Aze][NMePhe(4-Me)][Sar][hPhe(3-Cl-4-CF3)]P)), for which the results for the IC50 in assay [1] and in assay [2] were 0.79 nM and 100 to 500 nM, respectively.
Take `CC[C@H](C)[C@@H]1NC(=O)[C@H](C)N(C)C(=O)C[C@@H](C)NC(=O)[C@H](C2CCCC2)N(C)C(=O)C2(CCC2)NC(=O)[C@@H]2CCCN2C(=O)[C@H](CCc2ccc(C(F)(F)F)c(Cl)c2)NC(=O)CN(C)C(=O)[C@H](Cc2ccc(C)cc2)N(C)C(=O)CN(C)C(=O)CN(C)C1=O` [Compound 1466] (cyclo([Ac4c][NMeGly(cPent)][d(β3hA)][NMeA]I[Sar][Sar][NMePhe(4-Me)][Sar][hPhe(3-Cl-4-CF3)]P)): the IC50 is 1 nM in assay [1] and 100 to 500 nM in assay [2].
Turning to `CC[C@H](C)[C@@H]1NC(=O)[C@H](CC(C)C)N(C)C(=O)C[C@@H](C)NC(=O)[C@H](C2CCCC2)N(C)C(=O)C2(CCC2)NC(=O)[C@@H]2CCCN2C(=O)[C@H](CCc2ccc(C(F)(F)F)c(Cl)c2)NC(=O)CN(C)C(=O)[C@H](Cc2ccc(C)cc2)N(C)C(=O)CN(C)C(=O)CN(C)C1=O` [Compound 1498] (cyclo([Ac4c][NMeGly(cPent)][d(β3hA)][NMeL]I[Sar][Sar][NMePhe(4-Me)][Sar][hPhe(3-Cl-4-CF3)]P)), the half-maximal inhibitory concentration (IC50) in assay [1] was 1.7 nM; in assay [2] it was 100 to 500 nM.
In the same order, the values of `CC[C@H](C)[C@@H]1NC(=O)[C@H](CC(C)C)N(C)C(=O)C[C@@H](C)NC(=O)[C@H](C2CCCC2)N(C)C(=O)C2(CCCC2)NC(=O)[C@@H]2CCCN2C(=O)[C@H](CCc2ccc(C(F)(F)F)c(Cl)c2)NC(=O)CN(C)C(=O)[C@H](Cc2ccc(C)cc2)N(C)C(=O)[C@@H]2CCN2C(=O)CN(C)C1=O` [Compound 1500] (cyclo([Ac5c][NMeGly(cPent)][d(β3hA)][NMeL]I[Sar][Aze][NMePhe(4-Me)][Sar][hPhe(3-Cl-4-CF3)]P)) are 3.9 nM and 100 to 500 nM.
Consider `CC[C@H](C)[C@@H]1NC(=O)[C@H](CC(C)C)N(C)C(=O)C[C@@H](C(=O)N2CCCCC2)N(C)C(=O)[C@H](CC(C)C)N(C)C(=O)C2(CCCC2)NC(=O)[C@@H]2CCCN2C(=O)[C@H](CCc2ccc(C(F)(F)F)c(F)c2)NC(=O)CN(C)C(=O)[C@H](CC2CCCCC2)N(C)C(=O)CN(C)C(=O)CN(C)C1=O` [Compound 1501] ([NMeL]I[Sar][Sar][NMeCha][Sar][hPhe(3-F,4-CF3)]P[Ac5c][NMeL][NMeD]-Piperidide; lactam N-11), for which the IC50 is 14 nM in assay [1] and 100 to 500 nM in assay [2].
On to `CC[C@H](C)[C@@H]1NC(=O)[C@H](CC(C)C)N(C)C(=O)C[C@@H](C)NC(=O)[C@H](C2CCCC2)N(C)C(=O)C2(CCC2)NC(=O)[C@@H]2CCCN2C(=O)[C@H](CCc2ccc(C(F)(F)F)c(Cl)c2)NC(=O)CN(C)C(=O)[C@H](Cc2ccc(C(F)(F)F)cc2)N(C)C(=O)CN(C)C(=O)CN(C)C1=O` [Compound 1508] (cyclo([Ac4c][NMeGly(cPent)][d(β3hA)][NMeL]I[Sar][Sar][NMePhe(4-CF3)][Sar][hPhe(3-Cl-4-CF3)]P)), for which the IC50 in assay [1] was 1.3 nM; in assay [2], 100 to 500 nM.
For `CC[C@H](C)[C@@H]1NC(=O)[C@H](C)N(C)C(=O)C[C@@H](C)NC(=O)[C@H](C2CCCC2)N(C)C(=O)C2(CCCC2)NC(=O)[C@@H]2CCCN2C(=O)[C@H](CCc2ccc(C(F)(F)F)c(Cl)c2)NC(=O)CN(C)C(=O)[C@H](Cc2ccc(C(F)(F)F)cc2)N(C)C(=O)CN(C)C(=O)CN(C)C1=O` [Compound 1523] (cyclo([Ac5c][NMeGly(cPent)][d(β3hA)][NMeA]I[Sar][Sar][NMePhe(4-CF3)][Sar][hPhe(3-Cl-4-CF3)]P)), in that order: 0.75 nM and 100 to 500 nM.
In the same order, the values of `CC[C@H](C)[C@@H]1NC(=O)[C@H](CC(C)C)N(C)C(=O)C[C@@H](C)NC(=O)[C@H](C2CCCC2)N(C)C(=O)C2(CCCC2)NC(=O)[C@@H]2CCCN2C(=O)[C@H](CCc2ccc(C(F)(F)F)c(Cl)c2)NC(=O)CN(C)C(=O)[C@H](Cc2ccc(C(F)(F)F)cc2)N(C)C(=O)CN(C)C(=O)CN(C)C1=O` [Compound 1524] (cyclo([Ac5c][NMeGly(cPent)][d(β3hA)][NMeL]I[Sar][Sar][NMePhe(4-CF3)][Sar][hPhe(3-Cl-4-CF3)]P)) are 1.9 nM and 50 to 100 nM.

Usually IC50 stands for the concentration needed to halve the response being measured.

For the origin of these results see US12371454B2, “Cyclic peptide compound having Kras inhibitory action” (priority 2019, dated 2025).
